The values that follow come from patent US5028730A, “Antihypercholesterolemic nitrile compounds” (Bristol-Myers Company, priority 1990, dated 1991).

pIC50: −log10 of the molar value.

The target in this assay is T1, microsomal form of rat liver HMG-CoA reductase (Rattus norvegicus, UniProt P51639).
T1 construct: from tissue; host or cells: rat liver microsomes
T1 sequence (P51639 1-887): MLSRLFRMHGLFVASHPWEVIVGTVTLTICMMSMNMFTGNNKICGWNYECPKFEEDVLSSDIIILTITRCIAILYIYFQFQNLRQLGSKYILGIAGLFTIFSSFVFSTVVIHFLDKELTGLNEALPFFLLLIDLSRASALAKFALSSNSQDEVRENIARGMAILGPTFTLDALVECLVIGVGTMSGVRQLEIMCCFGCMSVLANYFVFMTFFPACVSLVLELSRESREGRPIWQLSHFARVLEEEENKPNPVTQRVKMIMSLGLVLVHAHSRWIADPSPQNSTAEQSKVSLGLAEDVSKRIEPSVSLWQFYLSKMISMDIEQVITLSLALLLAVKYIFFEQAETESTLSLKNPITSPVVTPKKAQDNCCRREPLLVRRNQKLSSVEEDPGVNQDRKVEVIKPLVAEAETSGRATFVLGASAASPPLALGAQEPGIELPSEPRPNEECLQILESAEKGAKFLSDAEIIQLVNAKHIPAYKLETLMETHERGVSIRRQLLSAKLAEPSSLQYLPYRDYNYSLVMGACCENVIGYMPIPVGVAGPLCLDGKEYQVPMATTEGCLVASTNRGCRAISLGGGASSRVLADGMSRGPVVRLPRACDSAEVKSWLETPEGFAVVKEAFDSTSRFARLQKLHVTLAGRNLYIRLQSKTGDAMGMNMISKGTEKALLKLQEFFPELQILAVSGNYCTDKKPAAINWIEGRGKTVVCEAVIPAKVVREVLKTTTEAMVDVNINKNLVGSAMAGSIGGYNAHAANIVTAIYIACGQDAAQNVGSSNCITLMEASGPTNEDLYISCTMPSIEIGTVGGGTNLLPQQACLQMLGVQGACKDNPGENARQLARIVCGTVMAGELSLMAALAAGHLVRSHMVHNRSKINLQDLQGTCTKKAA
Briefly: In Vitro Inhibition of Microsomal HMG-CoA Reductase. Type of assay: biochemical. Conditions: 50 percent inhibitory concentration, rat liver microsomes, [3-14C]-HMG-CoA 0.33 mM, NADPH 3.0 mM, pH 7.2, at least 4 dilutions in duplicate. On the procedure: The intact, fully activated microsomal form of rat liver HMG-CoA reductase (subunit MW ca 100,000 daltons) was prepared as described by Parker, et al., Biochem. Biophys. Res. Commun., 125, 629-635 (1984), and used as the source of enzyme for assays. HMG-CoA reductase activity was determined essentially by the method of Shapiro, et al., Biochem. Biophys. Acta., 370, 369-377 (1974), with modifications as described by Ingebritsen and Gibson, Meth. Enzymol, 71, 486-497 (1981) with the exception that the internal standard ^3 H-mevalonolactone is added after termination of the assay. […]
To measure reductase inhibition, test compounds dissolved in water or dimethylsulfoxide and diluted in buffer A (50 mM imidazole-HCl, 250 mM NaCl, 1 mM EDTA, 1 mM EGTA, 5 mM DTT, 20 μM leupeptin, pH=7.2) were incubated with aliquots of microsomes (80-160 μg protein in buffer A) followed by addition of d,1-[3-^14 C]-HMG-CoA (0.33 mM, 2.0 dpm/picomole) and NADPH (3.0 mM). The 50 percent inhibitory concentration (IC50) for each compound in Table 1 was calculated from the linear regression line of the percent decrease (from control) in enzyme activity vs. log concentration of inhibitor, determined using at least 4 dilutions of each test compound assayed in duplicate.

`N#CC(/C=C/[C@@H](O)C[C@@H](O)CC(=O)O)=C(c1ccc(F)cc1)c1ccc(F)cc1` (relative stereo) [Example 7, Sodium (±)-(E)-erythro-8-cyano-9,9-bis(4-fluorophenyl)-3,5-dihydroxy-6,8-nonadienoate] gave a pIC50 of 5.10.
The same measure for `N#CC(/C=C/[C@H]1C[C@H](O)CC(=O)O1)=C(c1ccc(F)cc1)c1ccc(F)cc1` (relative stereo) [Example 8, Trans-(E)-2-[bis(4-fluorophenyl)methylene]-4-(tetrahydro-4-hydroxy-6-oxo-2H-pyran-2-yl)-3-butenenitrile]: 4.59.
